Results as given in patent US20090130239A1, “METHOD FOR PREVENTING OR TREATING EDEMA OR DERMATITIS USING GLEHNIA LITTORALIS FR. SCHMIDT ET MIQUEL EXTRACT” (Korea Institute of Oriental Medicine, priority 2007, published 2009).

Tested on: TPA induced immune cell infiltration and epidermal hyperproliferation
Test: Histopathological analysis of ear tissues (H&E), TPA induced acute dermatitis
Type: in vivo, mouse
Details: ear tissue, 6 hours after TPA, extract 400 mg/kg, indomethacin 10 mg/kg, compared with TPA treated group
Procedure: C57BL/6J male mouse at 5 weeks (DAE HAN BIOLINK CO., LTD.), the most widely used inflammation animal model, was adapted to the experimental environment for 1 week. Total 40 mice were group into 4 (10 mice per each group). TPA (12-O-Tetrade-canoylphobol 13-acetate) was locally applied (2.5 ug/20 ul acetone) to the right ears of 6 week old mice to induce edema and dermatitis. The left ears of the mice were used as the negative control, to which an excipient (20 ul of acetone) was treated. The experimental group was treated with Glehnia littoralis Fr. Schmidt et Miquel extract (400 mg/kg) by intraperitoneal injection one hour before TPA treatment. The positive control group was administered with indomethacin (10 mg/kg) one hour before TPA treatment and the negative control was administered with saline by the same manner.
Inflammation was induced for 6 hours by the same manner as described in Experimental Example <1-1> and then the animal was sacrificed. […] In the […], edema and inflammation accompanying symptoms of migration and infiltration of polymorphonuclear leukocytes were induced. In the meantime, in the experimental group (C) administered with Glehnia littoralis Fr. […]

COc1ccc2c(c1)c(CC(=O)O)c(C)n2C(=O)c1ccc(Cl)cc1 [indomethacin]
infiltration of immune cells and epidermal hyperproliferation: inhibition
